# From patent US4333952A, “Growth promotors for ruminants” (Beecham Group Limited, priority 1979, dated 1982)
# Where two headings read alike, the source gives them in different places.
# Key:
# [1] = tested on: rumen fluid; experiment: in vitro incubation of buffered rumen fluid (methane inhibition, propionate enhancement, headspace gases and volatile fatty acids); assay type: cell-based, sheep; settings: for inhibition at 2 ppm / inhibition at 3 ppm / activation at 2 ppm / activation at 3 ppm / inhibition at 10 ppm / activation at 10 ppm / inhibition at 5 ppm / activation at 5 ppm: Ovis aries
# Protocol: The compounds were tested for their ability to reduce or inhibit methane production and to enhance propionate formation. The method used is as follows:
# The screening system is in vitro incubation of buffered rumen fluid with, or without, the addition of the test compound.
# Rumen fluid is removed by suction from two rumenfistulated sheep, just before feeding. The fluid is strained and mixed. The incubation is for twenty hours in a shaking water-bath at 39° C. Each incubation flask contains: 30 ml McDougall's bicarbonate buffer, pH 6.7-6.9, 10 ml strained rumen fluid, 200 mg substrate (the substrate is a ground sample of the diet on which the sheep has been fed) and 1 ml 10% aqueous ethanol containing 0.2% Tween 80 and the compound under examination. Samples are taken at the end of the incubation period for analysis of headspace gases and volatile fatty acids, by g.l.c.
# The compounds were tested at 10 ppm/flask, except for the compounds of Examples 9 and 10 which were tested at 5 ppm/flask.
# Selected compounds were also tested according to the above protocol at doses of 2 and 3 ppm, the results being given in Table 2 below.
# The compound of Example 1 was further tested in an in vitro a dose response study, according to the protocol above, at the doses shown in Table 3 below.
# [2] = tested on: methanogenesis; experiment: in vivo gas collection screen in sheep (respirometer, methanogenesis and hydrogen evolution); settings: 50 mg/sheep/day, 5 week period, same study
# Protocol: In vivo studies in a "gas collection screen":
# Groups of 4, 50 kg sheep were fed diets containing one of the compounds of formula (I) over a 5 week period. A different sheep from each group was put into a respirometer for 24 hours each day. Each sheep was thus monitored once in every […], gas flow was maintained by a peristaltic pump and measured using a commercial gas meter and a sub-sample collected in a butyl-rubber inner tube.
# [3] = 20 h, read-out: VFA production % change from control, Acetate
# [4] = 20 h, read-out: VFA production % change from control, Butyrate
# [5] = 20 h, read-out: VFA production % change from control, Propionate
# [6] = 20 h, read-out: VFA production % change from control, TVFA
# [7] = 20 h, read-out: VFA production % difference from control, Acetate
# [8] = 20 h, read-out: VFA production % difference from control, Butyrate
# [9] = 20 h, read-out: VFA production % difference from control, Propionate
# [10] = 20 h, read-out: VFA production % difference from control, TVFA
# [11] = 10 ppm/flask, 20 h, 39° C., read-out: % inhibition of methane
# [12] = 5 ppm/flask (Examples 9 and 10), 20 h, 39° C.
smiles,measurement,setting,value
"COc1cccc(NCC(O)C(Cl)(Cl)Cl)c1 (centres unmarked) [Example 6, 1,1,1-Trichloro-3-(m-methoxy)anilinopropan-2-ol]",% hydrogen present,"[1]; 10 ppm/flask, 20 h, 39° C.",2.59%
same,Molar % VFA Acetate,"[1]; 10 ppm/flask, 20 h, 39° C.",63.2 Molar %
same,Molar % VFA Butyrate,"[1]; 10 ppm/flask, 20 h, 39° C.",8.50 Molar %
same,Molar % VFA Propionate,"[1]; 10 ppm/flask, 20 h, 39° C.",24.9 Molar %
same,TVFA,"[1]; 10 ppm/flask, 20 h, 39° C.",55.4 μM/ml
same,inhibition at 2 ppm,[1]; [3],9.3%
same,inhibition at 3 ppm,[1]; [3],41.8%
same,activation at 2 ppm,[1]; [4],15.3%
same,activation at 3 ppm,[1]; [4],15.2%
same,activation at 2 ppm,[1]; [5],12.6%
same,activation at 3 ppm,[1]; [5],41.7%
same,inhibition at 2 ppm,[1]; [6],4.5%
same,inhibition at 3 ppm,[1]; [6],21.5%
same,inhibition at 10 ppm,[1]; [7],40.4%
same,activation at 10 ppm,[1]; [8],-6.6%
same,activation at 10 ppm,[1]; [9],36.8%
same,inhibition at 10 ppm,[1]; [10],25.3%
same,inhibition at 10 ppm,[1]; [11],97.5%
same,inhibition at 2 ppm,"[1]; Table 2, 2 ppm, read-out: % inhibition of methane",11.5%
same,inhibition at 3 ppm,"[1]; Table 2, 3 ppm, read-out: % inhibition of methane",77.8%
same,% hydrogen in headspace gases,"[1]; Table 2, 2 ppm",0.03%
same,% hydrogen in headspace gases,"[1]; Table 2, 3 ppm",1.09%
"OC(CN(CC(O)C(Cl)(Cl)Cl)c1ccccc1)C(Cl)(Cl)Cl (centres unmarked) [Example 7, N,N-Di (3,3,3-Trichloro-2-hydroxypropyl)aniline]",% hydrogen present,"[1]; 10 ppm/flask, 20 h, 39° C.",2.17%
same,Molar % VFA Acetate,"[1]; 10 ppm/flask, 20 h, 39° C.",61.9 Molar %
same,Molar % VFA Butyrate,"[1]; 10 ppm/flask, 20 h, 39° C.",9.72 Molar %
same,Molar % VFA Propionate,"[1]; 10 ppm/flask, 20 h, 39° C.",24.8 Molar %
same,TVFA,"[1]; 10 ppm/flask, 20 h, 39° C.",56.2 μM/ml
same,inhibition at 10 ppm,[1]; [11],87.9%
same,inhibition at 10 ppm,"[1]; 10 ppm/flask, 20 h, 39° C., read-out: VFA production % difference from control, Acetate",40.8%
same,activation at 10 ppm,"[1]; 10 ppm/flask, 20 h, 39° C., read-out: VFA production % difference from control, Butyrate",18.9%
same,activation at 10 ppm,"[1]; 10 ppm/flask, 20 h, 39° C., read-out: VFA production % difference from control, Propionate",39%
same,inhibition at 10 ppm,"[1]; 10 ppm/flask, 20 h, 39° C., read-out: VFA production % difference from control, TVFA",24.7%
"O=C(CC(O)C(Cl)(Cl)Cl)c1ccc(Cl)cc1 (centres unmarked) [Example 8, 1-p-Chlorophenacyl-2-hydroxy-3-trichloropropane]",% hydrogen present,"[1]; 10 ppm/flask, 20 h, 39° C.",0.05%
same,Molar % VFA Acetate,"[1]; 10 ppm/flask, 20 h, 39° C.",63.5 Molar %
same,Molar % VFA Butyrate,"[1]; 10 ppm/flask, 20 h, 39° C.",9.8 Molar %
same,Molar % VFA Propionate,"[1]; 10 ppm/flask, 20 h, 39° C.",23.7 Molar %
same,TVFA,"[1]; 10 ppm/flask, 20 h, 39° C.",50.5 μM/ml
same,inhibition at 10 ppm,[1]; [7],23.1%
same,activation at 10 ppm,[1]; [8],50.7%
same,activation at 10 ppm,[1]; [9],42.4%
same,inhibition at 10 ppm,[1]; [10],6.5%
same,inhibition at 10 ppm,[1]; [11],34.1%
"OC(CC(O)C(Cl)(Cl)Cl)c1ccc(Cl)cc1 (centres unmarked) [Example 9, 1-p-Chlorophenyl-1,3-dihydroxy-4,4,4-trichlorobutane]",% hydrogen present,[1]; [12],0.64%
same,Molar % VFA Acetate,[1]; [12],59.9 Molar %
same,Molar % VFA Butyrate,[1]; [12],10.7 Molar %
same,Molar % VFA Propionate,[1]; [12],26.4 Molar %
same,TVFA,[1]; [12],47.7 μM/ml
same,inhibition at 5 ppm,[1]; [7],38.5%
same,activation at 5 ppm,[1]; [8],59.7%
same,activation at 5 ppm,[1]; [9],53.2%
same,inhibition at 5 ppm,[1]; [10],15.5%
same,inhibition at 5 ppm,"[1]; 5 ppm/flask (Examples 9 and 10), 20 h, 39° C., read-out: % inhibition of methane",50.7%
"CC[C@@]1([C@@H]2O[C@@H]([C@H]3O[C@@](O)(CO)[C@H](C)C[C@@H]3C)C[C@@H]2C)CC[C@H]([C@]2(C)CC[C@]3(C[C@H](O)[C@@H](C)[C@@H]([C@@H](C)[C@@H](OC)[C@H](C)C(=O)O)O3)O2)O1 [Monensin, reference compound]",methane inhibition,[2],41%
